Laboratory results: patent publication EP0465716A1, “Optically active thiazetoquino-line-3-carboxylic acid compound, method for preparation thereof, and a pharmaceutical composition comprising the same” (priority 1990, dated 1992)
In brackets after ≈: the same amount, converted by molar mass.

Experiments:
[1] = tested on: Klebsiella pneumoniae PCI-602; assay: MIC, twofold agar dilution method (standard laboratory strain); type: cell-based; settings: PCI602; Klebsiella pneumoniae PCI-602, Gram -; 10^6 cfu/ml; 18 hrs at 37 °C; read-out: MIC
Method: Minimum inhibitory concentrations (MIC) of test compounds were determined by the twofold agar dilution method (Chemotherapy, 29(1), 76(1981)). Overnight cultures in Mueller-Hinton broth were suspended by buffered saline gelatin. One loopful of the bacterial suspension (10⁶ or 10⁸ colony-forming units/ml) was incubated onto the plates containing test compounds. The plates were incubated for 18 hrs at 37 °C. The MIC was defined by the lowest concentration of the drug that inhibited visible growth of bacteria.

[2] = tested on: Staphylococcuss aureus HPC 308; assay: MIC, twofold agar dilution method (clinically isolated strain); type: cell-based; settings: Staphylococcuss aureus HPC 308, Gram +; 10^6 cfu/ml; 18 hrs at 37 °C
Method: (§1) Overnight cultures in Mueller-Hinton broth were suspended by buffered saline gelatin. One loopful of the bacterial suspension (10⁶ or 10⁸ colony-forming units/ml) was incubated onto the plates containing test compounds. The plates were incubated for 18 hrs at 37 °C. The MIC was defined by the lowest concentration of the drug that inhibited visible growth of bacteria.

[3] = tested on: Serratia marcescens HNR 1767; assay: as above; type: cell-based; settings: HNR1767; Serratia marcescens HNR 1767, Gram -; 10^6 cfu/ml; 18 hrs at 37 °C
Method: as §1

[4] = tested on: Enterobacter cloacae HNR 1939; assay: as above; type: cell-based; settings: HNR1939; Enterobacter cloacae HNR 1939, Gram -; 10^6 cfu/ml; 18 hrs at 37 °C
Method: as §1

[5] = tested on: Klebsiella pneumoniae HNR 858; assay: as above; type: cell-based; settings: HNR858; Klebsiella pneumoniae HNR 858, Gram -; 10^6 cfu/ml; 18 hrs at 37 °C
Method: as §1

[6] = tested on: Acinetobacter calcoaceticus HNR 939; assay: as above; type: cell-based; settings: HNR939; Acinetobacter calcoaceticus HNR 939, Gram -; 10^6 cfu/ml; 18 hrs at 37 °C
Method: as §1

[7] = tested on: Enterobacter cloacae HNR 1946; assay: as above; type: cell-based; settings: HNR1946; Enterobacter cloacae HNR 1946, Gram -; 10^6 cfu/ml; 18 hrs at 37 °C
Method: as §1

[8] = tested on: Enterococcus faecalis HPC 948; assay: as above; type: cell-based; settings: HPC948; Enterococcus faecalis HPC 948, Gram +; 10^6 cfu/ml; 18 hrs at 37 °C
Method: as §1

[9] = tested on: Pseudomonas aeruginosa HNR 1472; assay: as above; type: cell-based; settings: HNR1472; Pseudomonas aeruginosa HNR 1472, Gram -; 10^6 cfu/ml; 18 hrs at 37 °C
Method: as §1

[10] = tested on: Staphylococcuss aureus HPC 527; assay: as above; type: cell-based; settings: Staphylococcuss aureus HPC 527, Gram +; 10^6 cfu/ml; 18 hrs at 37 °C
Method: as §1

[11] = tested on: Serratia marcescens HNR 1792; assay: as above; type: cell-based; settings: HNR1792; Serratia marcescens HNR 1792, Gram -; 10^6 cfu/ml; 18 hrs at 37 °C
Method: as §1

[12] = tested on: Enterococcus faecalis HPC 984; assay: as above; type: cell-based; settings: HPC984; Enterococcus faecalis HPC 984, Gram +; 10^6 cfu/ml; 18 hrs at 37 °C
Method: as §1

[13] = tested on: Klebsiella pneumoniae HNR 828; assay: as above; type: cell-based; settings: HNR828; Klebsiella pneumoniae HNR 828, Gram -; 10^6 cfu/ml; 18 hrs at 37 °C
Method: as §1

[14] = tested on: Klebsiella pneumoniae HNR 869; assay: as above; type: cell-based; settings: HNR869; Klebsiella pneumoniae HNR 869, Gram -; 10^6 cfu/ml; 18 hrs at 37 °C
Method: as §1

[15] = tested on: Staphylococcuss aureus HPC 292; assay: as above; type: cell-based; settings: Staphylococcuss aureus HPC 292, Gram +; 10^6 cfu/ml; 18 hrs at 37 °C
Method: as §1

[16] = tested on: Pseudomonas aeruginosa HNR 1489; assay: as above; type: cell-based; settings: HNR1489; Pseudomonas aeruginosa HNR 1489, Gram -; 10^6 cfu/ml; 18 hrs at 37 °C
Method: as §1

[17] = tested on: Acinetobacter calcoaceticus HNR 904; assay: as above; type: cell-based; settings: HNR904; Acinetobacter calcoaceticus HNR 904, Gram -; 10^6 cfu/ml; 18 hrs at 37 °C
Method: as §1

[18] = tested on: Enterococcus faecalis HPC 975; assay: as above; type: cell-based; settings: HPC975; Enterococcus faecalis HPC 975, Gram +; 10^6 cfu/ml; 18 hrs at 37 °C
Method: as §1

[19] = tested on: Enterobacter cloacae HNR 1941; assay: as above; type: cell-based; settings: HNR1941; Enterobacter cloacae HNR 1941, Gram -; 10^6 cfu/ml; 18 hrs at 37 °C
Method: as §1

[20] = tested on: Serratia marcescens HNR 1544; assay: as above; type: cell-based; settings: HNR1544; Serratia marcescens HNR 1544, Gram -; 10^6 cfu/ml; 18 hrs at 37 °C
Method: as §1

[21] = tested on: Acinetobacter calcoaceticus HNR 916; assay: as above; type: cell-based; settings: HNR916; Acinetobacter calcoaceticus HNR 916, Gram -; 10^6 cfu/ml; 18 hrs at 37 °C
Method: as §1

[22] = tested on: Pseudomonas aeruginosa HNR 1537; assay: as above; type: cell-based; settings: HNR1537; Pseudomonas aeruginosa HNR 1537, Gram -; 10^6 cfu/ml; 18 hrs at 37 °C
Method: as §1

[23] = tested on: Escherichia coli NIHJ JC-2; assay: MIC, twofold agar dilution method (standard laboratory strain); type: cell-based; settings: NIHJJC2; Escherichia coli NIHJ JC-2, Gram -; 10^6 cfu/ml; 18 hrs at 37 °C
Method: as §1

[24] = tested on: Serratia marcescens IAM 1184; assay: as above; type: cell-based; settings: IAM1184; Serratia marcescens IAM 1184, Gram -; 10^6 cfu/ml; 18 hrs at 37 °C
Method: as §1

[25] = tested on: Pseudomonas aeruginosa IFO 3445; assay: as above; type: cell-based; settings: IFO3445; Pseudomonas aeruginosa IFO 3445, Gram -; 10^6 cfu/ml; 18 hrs at 37 °C
Method: as §1

[26] = tested on: Staphylococuss aureus FDA 209PJC-1; assay: as above; type: cell-based; settings: Staphylococuss aureus FDA 209PJC-1, Gram +; 10^6 cfu/ml; 18 hrs at 37 °C
Method: as §1

[27] = tested on: Enterobacter cloacae 963; assay: as above; type: cell-based; settings: Enterobacter cloacae 963, Gram -; 10^6 cfu/ml; 18 hrs at 37 °C
Method: as §1

[28] = tested on: Male mice of ddY strain; assay: Convulsion inducing activity in combination with fenbufen; settings: thirty minutes after fenbufen 100 mg/kg orally
Method: Male mice of ddY strain, 5 weeks old, were used. Fenbufen suspended in 0.5 % carboxymethylcellulose was administered orally at a dose of 100 mg/kg. After thirty minutes, test compounds suspended in 0.5 % carboxymethylcellulose were injected intraperitoneally (i.p.) at a dose of 100 mg/kg or 300 mg/kg.

For CC1Sc2c(C(=O)O)c(=O)c3cc(F)c(N4CC[C@H](N)C4)c(F)c3n21 (single isomer, unassigned) [Example 18], the MIC [1] was at most 0.0015 µg/mL, the MIC [2] was 0.39 µg/mL (≈ 1.06 µM) and the MIC [3] was 3.13 µg/mL (≈ 8.52 µM). For the same compound, the MIC [4] was 0.05 µg/mL (≈ 0.136 µM), the MIC [5] was 0.05 µg/mL (≈ 0.136 µM) and the MIC [6] was 0.78 µg/mL (≈ 2.12 µM). It also gave an MIC [7] of 0.1 µg/mL (≈ 0.272 µM), an MIC [8] of 0.39 µg/mL (≈ 1.06 µM) and an MIC [9] of 1.56 µg/mL (≈ 4.25 µM). For the same compound, the MIC [10] was 0.012 µg/mL (≈ 0.0327 µM), the MIC [11] was 0.78 µg/mL (≈ 2.12 µM) and the MIC [12] was 0.05 µg/mL (≈ 0.136 µM). For the same compound, the MIC [13] was 0.78 µg/mL (≈ 2.12 µM), the MIC [14] was 0.39 µg/mL (≈ 1.06 µM) and the MIC [15] was 0.78 µg/mL (≈ 2.12 µM). For the same compound, the MIC [16] was 0.05 µg/mL (≈ 0.136 µM), the MIC [17] was 3.13 µg/mL (≈ 8.52 µM) and the MIC [18] was 1.56 µg/mL (≈ 4.25 µM). It also gave an MIC [19] of 1.56 µg/mL (≈ 4.25 µM), an MIC [20] of 0.012 µg/mL (≈ 0.0327 µM) and an MIC [21] of 0.025 µg/mL (≈ 0.068 µM). It also gave an MIC [22] of 3.13 µg/mL (≈ 8.52 µM), an MIC [23] of 0.006 µg/mL (≈ 0.0163 µM) and an MIC [24] of 0.012 µg/mL (≈ 0.0327 µM). For the same compound, the MIC [25] was 0.025 µg/mL (≈ 0.068 µM), the MIC [26] was 0.006 µg/mL (≈ 0.0163 µM) and the MIC [27] was 0.006 µg/mL (≈ 0.0163 µM). The “Number of convulsion induced / Number of animals” value ([28]; 100 mg/kg (i.p.)) was 0 / 6 and the “Number of convulsion induced / Number of animals” value ([28]; 300 mg/kg (i.p.)) was 0 / 6.

With CC1Sc2c(C(=O)O)c(=O)c3cc(F)c(N4CC[C@H](N)C4)c(Cl)c3n21 (single isomer, unassigned) [Example 15] the MIC [1] was 0.006 µg/mL (≈ 0.0156 µM), the MIC [2] was 0.39 µg/mL (≈ 1.02 µM) and the MIC [3] was 1.56 µg/mL (≈ 4.06 µM). The MIC [4] was 0.1 µg/mL (≈ 0.261 µM), the MIC [5] was 0.1 µg/mL (≈ 0.261 µM) and the MIC [6] was 0.78 µg/mL (≈ 2.03 µM). The MIC [7] was 0.1 µg/mL (≈ 0.261 µM), the MIC [8] was 0.39 µg/mL (≈ 1.02 µM) and the MIC [9] was 1.56 µg/mL (≈ 4.06 µM). For the same compound, the MIC [10] was 0.025 µg/mL (≈ 0.0651 µM), the MIC [11] was 0.39 µg/mL (≈ 1.02 µM) and the MIC [12] was 0.1 µg/mL (≈ 0.261 µM). It also gave an MIC [13] of 0.78 µg/mL (≈ 2.03 µM), an MIC [14] of 0.2 µg/mL (≈ 0.521 µM) and an MIC [15] of 1.56 µg/mL (≈ 4.06 µM). The MIC [16] was 0.1 µg/mL (≈ 0.261 µM), the MIC [17] was 6.25 µg/mL (≈ 16.3 µM) and the MIC [18] was 1.56 µg/mL (≈ 4.06 µM). For the same compound, the MIC [19] was 0.78 µg/mL (≈ 2.03 µM), the MIC [20] was 0.025 µg/mL (≈ 0.0651 µM) and the MIC [21] was 0.05 µg/mL (≈ 0.13 µM). It also gave an MIC [22] of 1.56 µg/mL (≈ 4.06 µM), an MIC [23] of 0.012 µg/mL (≈ 0.0313 µM) and an MIC [24] of 0.025 µg/mL (≈ 0.0651 µM). For the same compound, the MIC [25] was 0.05 µg/mL (≈ 0.13 µM), the MIC [26] was 0.025 µg/mL (≈ 0.0651 µM) and the MIC [27] was 0.012 µg/mL (≈ 0.0313 µM). For the same compound, the “Number of convulsion induced / Number of animals” value ([28]; 100 mg/kg (i.p.)) was 0 / 6 and the “Number of convulsion induced / Number of animals” value ([28]; 300 mg/kg (i.p.)) was 0 / 6.
